In US10738028B2, “Spiro three-membered ring, spiro five-membered ring peptide deformylase inhibitor and use thereof in antibacteria and anti-tumor” (priority 2016, dated 2020):

How the values were obtained:
Assay type in all cases: cell-based
[1] = tested on: A549 lung cancer cell line; assay: CCK-8 proliferation inhibition; conditions: concentration of 30 μM
Procedure, shortened: (§1)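 Plating at 2000 cells/well, then incubation overnight at 37° C. Next, a range of compound concentrations for 72 hours (control 1‰ DMSO). Finally, medium decanted and CCK-8 diluted 1:10 added.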

[2] = tested on: BEL-7402 liver cancer cell line; assay: CCK-8 proliferation inhibition; conditions: concentration of 30 μM
Procedure, shortened: as §1

[3] = tested on: MGC-803 gastric cancer cell line; assay: CCK-8 proliferation inhibition; conditions: Homo sapiens, MGC-803, 72 h, concentration of 30 μM
Procedure, shortened: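 Cells were seeded at 2000 cells/well and cultured overnight at 37° C, 5% CO2, then exposed for 72 hours to compounds diluted from DMSO stocks. Controls received 1‰ DMSO. CCK-8 (1:10 diluted) replaced the medium. MGC-803 and Jurkat were grown in 1640, PC3 in F12, and MCF-7 in DMEM high glucose, each with 10% newborn bovine serum.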

[4] = tested on: methicillin-sensitive Staphylococcus aureus (MSSA); assay: MIC, two-fold agar dilution (CLSI), clinical isolates
Procedure, shortened: (§2)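 Susceptibility was tested using CLSI two-fold agar dilution against the strains examined.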

[5] = tested on: Escherichia coli (including ESBLs, non-ESBLs); assay: as above
Procedure, shortened: as §2

[6] = tested on: methicillin-resistant Staphylococcus epidermidis (MRSE); assay: as above
Procedure, shortened: as §2

[7] = tested on: Enterococcus faecalis (EFA); assay: as above
Procedure, shortened: as §2

[8] = tested on: methicillin-sensitive Staphylococcus epidermidis (MSSE); assay: as above
Procedure, shortened: as §2

[9] = tested on: Streptococcus pneoumoniae (SPN); assay: as above
Procedure, shortened: as §2

[10] = tested on: Moraxella catarrhalis (BCA); assay: as above
Procedure, shortened: as §2

[11] = tested on: methicillin-resistant Staphylococcus aureus (MRSA); assay: as above
Procedure, shortened: as §2

[12] = tested on: Enterococcus faecium (EFM); assay: as above
Procedure, shortened: as §2

[13] = tested on: HCT-116 colorectal cancer cell line; assay: CCK-8 proliferation inhibition; conditions: concentration of 30 μM, 72 hours, CCK-8
Procedure, shortened: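 HCT-116 cells, seeded at 2000 cells/well in McCoy's 5A with 10% newborn bovine serum, were cultured overnight at 37° C., 5% CO2, then exposed to compound dilutions in medium for 72 hours. Viability was read with 1:10 diluted CCK-8; controls received 1‰ DMSO.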

**Q.** For `O=C(C[C@@H](CC1CCCC1)C(=O)N1CC2(CC2)C[C@H]1C(=O)Nc1ccno1)NO` [Example 70, (S)-5-((R)-2-(cyclopentylmethyl)-4-(hydroxyamino)-4-oxobutyl)-N-(isoxazol-5-yl)-5-spiro[2.4]heptane-6-carboxamide], which inhibition at 30 µM ([1]; Homo sapiens, A549, 72 h) is on record?
**A.** > 50%

**Q.** And the “Inhibition of proliferation, Lung cancer A549” value ([1]; 72 hours, 30 µM)?
**A.** 54%

**Q.** And the inhibition at 30 µM ([2]; Homo sapiens, Bel-7402, 72 h)?
**A.** > 50%

**Q.** And the “Inhibition of proliferation, Liver cancer BEL-7402” value ([2]; 72 hours, 30 µM)?
**A.** 62%

**Q.** And the inhibition at 30 µM [3]?
**A.** 50%

**Q.** And the Anti-bacterial activity (MIC), strain MSSA 15-3 ([4]; clinical isolate MSSA 15-3)?
**A.** 2 µg/mL

**Q.** And the Anti-bacterial activity (MIC), strain MSSA 15-4 ([4]; clinical isolate MSSA 15-4)?
**A.** 0.5 µg/mL

**Q.** What about the Anti-bacterial activity (MIC), strain MSSA 15-5 ([4]; clinical isolate MSSA 15-5) of the same compound?
**A.** 0.25 µg/mL

**Q.** What about the Anti-bacterial activity (MIC), strain MSSA 15-6 ([4]; clinical isolate MSSA 15-6) of the same compound?
**A.** 16 µg/mL

**Q.** And the Anti-bacterial activity (MIC), strain ECO+ 15-1 ([5]; clinical isolate ECO+ 15-1)?
**A.** 16 µg/mL

**Q.** What about the Anti-bacterial activity (MIC), strain ECO+ 15-2 ([5]; clinical isolate ECO+ 15-2) of the same compound?
**A.** 32 µg/mL

**Q.** What about the Anti-bacterial activity (MIC), strain ECO+ 15-3 ([5]; clinical isolate ECO+ 15-3) of the same compound?
**A.** 32 µg/mL

**Q.** And the Anti-bacterial activity (MIC), strain ECO+ 15-4 ([5]; clinical isolate ECO+ 15-4)?
**A.** 16 µg/mL

**Q.** And the Anti-bacterial activity (MIC), strain ECO− 15-1 ([5]; clinical isolate ECO− 15-1)?
**A.** 16 µg/mL

**Q.** And the Anti-bacterial activity (MIC), strain ECO− 15-2 ([5]; clinical isolate ECO− 15-2)?
**A.** 32 µg/mL

**Q.** What about the Anti-bacterial activity (MIC), strain ECO− 15-3 ([5]; clinical isolate ECO− 15-3) of the same compound?
**A.** 32 µg/mL

**Q.** And the Anti-bacterial activity (MIC), strain ECO− 15-4 ([5]; clinical isolate ECO− 15-4)?
**A.** 16 µg/mL

**Q.** What about the Anti-bacterial activity (MIC), strain MRSE 15-1 ([6]; clinical isolate MRSE 15-1) of the same compound?
**A.** 0.5 µg/mL

**Q.** And the Anti-bacterial activity (MIC), strain MRSE 15-2 ([6]; clinical isolate MRSE 15-2)?
**A.** 2 µg/mL

**Q.** And the Anti-bacterial activity (MIC), strain MRSE 15-3 ([6]; clinical isolate MRSE 15-3)?
**A.** 2 µg/mL

**Q.** What about the Anti-bacterial activity (MIC), strain MRSE 15-7 ([6]; clinical isolate MRSE 15-7) of the same compound?
**A.** 2 µg/mL

**Q.** And the Anti-bacterial activity (MIC) ([7]; strain EFA 15-1)?
**A.** 32 µg/mL

**Q.** What about the Anti-bacterial activity (MIC) ([7]; strain EFA 15-2) of the same compound?
**A.** 32 µg/mL

**Q.** And the Anti-bacterial activity (MIC) ([7]; strain EFA 15-3)?
**A.** 32 µg/mL

**Q.** And the Anti-bacterial activity (MIC) ([7]; strain EFA 15-4)?
**A.** 32 µg/mL

**Q.** What about the Anti-bacterial activity (MIC) ([7]; strain EFA 15-5) of the same compound?
**A.** 32 µg/mL

**Q.** What about the Anti-bacterial activity (MIC) ([7]; strain EFA 15-6) of the same compound?
**A.** 32 µg/mL

**Q.** And the Anti-bacterial activity (MIC) ([7]; strain EFA 15-9)?
**A.** 1 µg/mL

**Q.** What about the Anti-bacterial activity (MIC), strain MSSE 15-3 ([8]; clinical isolate MSSE 15-3) of the same compound?
**A.** 0.5 µg/mL

**Q.** What about the Anti-bacterial activity (MIC), strain MSSE 15-4 ([8]; clinical isolate MSSE 15-4) of the same compound?
**A.** 1 µg/mL

**Q.** And the Anti-bacterial activity (MIC), strain MSSE 15-5 ([8]; clinical isolate MSSE 15-5)?
**A.** 1 µg/mL

**Q.** What about the Anti-bacterial activity (MIC), strain MSSE 15-6 ([8]; clinical isolate MSSE 15-6) of the same compound?
**A.** 0.25 µg/mL

**Q.** What about the Anti-bacterial activity (MIC) ([9]; strain SPN 16-2) of the same compound?
**A.** 0.5 µg/mL

**Q.** What about the Anti-bacterial activity (MIC) ([9]; strain SPN 16-4) of the same compound?
**A.** 0.25 µg/mL

**Q.** And the Anti-bacterial activity (MIC) ([10]; strain BCA 14-1)?
**A.** 1 µg/mL

**Q.** And the Anti-bacterial activity (MIC) ([10]; strain BCA 14-4)?
**A.** 2 µg/mL

**Q.** What about the Anti-bacterial activity (MIC) ([10]; strain BCA 14-5) of the same compound?
**A.** 2 µg/mL

**Q.** What about the Anti-bacterial activity (MIC) ([10]; strain BCA 14-6) of the same compound?
**A.** 2 µg/mL

**Q.** And the Anti-bacterial activity (MIC) ([10]; strain BCA 14-7)?
**A.** 4 µg/mL

**Q.** What about the Anti-bacterial activity (MIC) ([10]; strain BCA 14-8) of the same compound?
**A.** 1 µg/mL

**Q.** What about the Anti-bacterial activity (MIC) ([10]; strain BCA 14-10) of the same compound?
**A.** 1 µg/mL

**Q.** What about the Anti-bacterial activity (MIC), strain MRSA 15-1 ([11]; clinical isolate MRSA 15-1) of the same compound?
**A.** 0.5 µg/mL

**Q.** And the Anti-bacterial activity (MIC), strain MRSA 15-2 ([11]; clinical isolate MRSA 15-2)?
**A.** 1 µg/mL

**Q.** What about the Anti-bacterial activity (MIC), strain MRSA 15-3 ([11]; clinical isolate MRSA 15-3) of the same compound?
**A.** 0.5 µg/mL

**Q.** What about the Anti-bacterial activity (MIC), strain MRSA 15-4 ([11]; clinical isolate MRSA 15-4) of the same compound?
**A.** 1 µg/mL

**Q.** What about the Anti-bacterial activity (MIC) ([12]; strain EFM 15-1) of the same compound?
**A.** 32 µg/mL

**Q.** And the Anti-bacterial activity (MIC) ([12]; strain EFM 15-2)?
**A.** 32 µg/mL

**Q.** What about the Anti-bacterial activity (MIC) ([12]; strain EFM 15-3) of the same compound?
**A.** 32 µg/mL

**Q.** What about the Anti-bacterial activity (MIC) ([12]; strain EFM 15-4) of the same compound?
**A.** 1 µg/mL

**Q.** And the Anti-bacterial activity (MIC) ([12]; strain EFM 15-5)?
**A.** 0.2 µg/mL

**Q.** What about the Anti-bacterial activity (MIC) ([12]; strain EFM 15-6) of the same compound?
**A.** 2 µg/mL

**Q.** What about the inhibition at 30 µM ([13]; Homo sapiens, HCT-116, 72 h, read-out: HCT116 inhibition rate/%) of the same compound?
**A.** > 50%

**Q.** And the HCT116 inhibition rate/% ([13]; 30 µM)?
**A.** 64%
